According to patent publication US20030125314A1, “Photodynamic therapy for the treatment of epilepsy” (priority 2001, published 2003):

Legend:
kindled rats [1] = assay: Morris Water Maze after photodynamic therapy, compared to historic controls; type: in vivo, rat; details: animals completing the photodynamic therapy protocol
From the text: (§1) In our study, animals completing the photodynamic therapy protocol recovered from surgery and underwent behavioral testing using the beam walk test to assess paresis and the Morris Water Maze to assess hippocampus related learning.

[2] = system: CA1 and CA3 regions of the kindled hippocampus; assay: Fluorojade histofluorescence analysis of cell death after laser-induced PDT; type: in vivo, rat; details: 24 hours after laser-induced PDT of ALA-treated animals
Protocol: The Wilson laboratory at the University of Toronto has previously measured apoptotic cell death at 24 hours following PDT and our Fluorojade results are consistent with their findings. Lilge et al. (2000) have shown that necrotic and apoptotic cell death are a function of the laser exposure (a variable easy to control) and not extent of ALA uptake or conversion.
Fluorojade (Histo-Chem, Inc) staining will be carried out on 20 micron cryostat-prepared brain sections. Tissue sections are mounted onto gelatinized slides and allowed to dry at room temp. Using a staining rack, slides are immersed in 100% EtOH (3 min), in 70% EtOH (1 min), in distilled water (1 min), and then in 0.06% solution of potassium permanganate (15 min, shaking gently). Slides are rinsed in distilled water, and then immersed in a 0.001% Fluoro-Jade solution (away from light, 30 min, shaking gently) following steps carried out in dim light). Still in dim light, slides are then rinsed, dried, dehydrated (xylene), and coverslipped. Stained slides, viewed with a fluorescence microscope (FITC filter), reveal apoptotic cells as brightly green.

kindled rats [3] = assay: Resumed daily kindling stimulations after PDT (seizure activity, after discharges); type: in vivo, rat; details: PDT animals, over 1 week of daily stimulation
From the text: We have assessed this therapy in kindled rats. Kindling is a well characterized and reproducible model for reflecting epileptogensis, the process by which a normal brain region becomes an epileptic focus. Animals are kindled with an electrode implanted into the perforant path region of the brain. Each day the animals receive a small stimulus. Initially no seizure activity is induced, but over two or three weeks, this same low level of stimulation generates increasing seizure activity until an animal has 3 consecutive tonic clonic (Stage 5) seizures. Once fully kindled, animals retain this seizure sensitivity even if not stimulated for days or months.
as §1

kindled rats [4] = assay: Beam walk test to assess paresis after photodynamic therapy; type: in vivo, rat; details: animals completing the photodynamic therapy protocol, compared to historic controls
From the text: as §1

[5] = system: rat model of epilepsy (kindled rats); assay: Morris Water Maze (spatial learning and memory) after photodynamic therapy; type: in vivo, Sprague-Dawley rats; details: ALA 400 mg/Kg IV, 635 nm laser 10 min at 4 h, vs control animals, F(3,27)=0.920, p=0.445 between groups
From the text: To assess behavioral outcome, thirty-one Sprague-Dawley rats were placed into four groups to test the effects of PDT treatment parameters. All animals underwent a behavioral battery that included the Morris Water Maze (MWM), selected to assess one aspect of hippocampal function, spatial learning and memory and incline plane (IP) to screen for motor injury. […] Male Sprague-Dawley rats (275 g) had bipolar stimulating electrodes stereotactically implanted under surgical anesthesia at 7.4 mm posterior to Bregma and 4.1 lateral to the midline through a 1.5 mm craniotomy. […] ALA (400 mg/Kg) was injected intravenously through a femoral vein catheter. […] Four hours post drug administration animals were anesthetized and stereotactically positioned. […] A 4 mm diameter was created and a laser was positioned 2.3 mm from the surface of the brain. […] Laser light was focused on the brain for 10 minutes at a wavelength of 635 nanometers. […] All animals participated in the MWM test which was conducted over 5 consecutive days.

[6] = system: rat model of epilepsy (kindled rats); assay: Incline Plane test (motor/grip strength) after photodynamic therapy; type: in vivo, Sprague-Dawley rats; details: ALA 400 mg/Kg IV, 635 nm laser 10 min, vs control groups, F(3,27)=1.616, p=0.209 between groups
Protocol: To assess behavioral outcome, thirty-one Sprague-Dawley rats were placed into four groups to test the effects of PDT treatment parameters. All animals underwent a behavioral battery that included the Morris Water Maze (MWM), selected to assess one aspect of hippocampal function, spatial learning and memory and incline plane (IP) to screen for motor injury. […] ALA (400 mg/Kg) was injected intravenously through a femoral vein catheter. […] Four hours post drug administration animals were anesthetized and stereotactically positioned. […] A 4 mm diameter was created and a laser was positioned 2.3 mm from the surface of the brain. […] Laser light was focused on the brain for 10 minutes at a wavelength of 635 nanometers. […] This test was selected because it can evaluate bilateral grip strength and we used this test to screen for any motor and/or coordination deficiencies resulting for the surgical craniectomy or laser effect on the cortex. […] Any sign of hemiparesis may indicate undesired cortical injury. […] This test involves the initial placement of the animal at a 65 degree angle to the horizontal. The flat plane can move up or down at intervals of 5 degrees, until they are at an angle where they can hold their position without sliding down. Then the opposite side is tested. Animals are evaluated on this task on days 1-4 before going on to the MWM.

[7] = cited from earlier work
hippocampal cells = assay: PpIX fluorescence in brain sections after ALA infusion (fluorescence microscopy, Texas Red filter); details: 400 mg/Kg IV, 4 hours

NCC(=O)CCC(=O)O [ALA, 5-aminolevulinic acid]
learning impairment (Morris Water Maze) (kindled rats [1]): no hemiparesis or learning impairment | cell death (Fluorojade histofluorescence) [2]: selective cell death in the CA1 and CA3 regions of the kindled hippocampus | seizure activity / after discharges on resumed kindling stimulation (kindled rats [3]): no seizure activity or significant after discharges | hemiparesis (beam walk test) (kindled rats [4]): no hemiparesis | performance on the MWM task [5]: no significant differences | incline plane assessment (motor performance) [6]: no difference between groups | blood-brain barrier passage ([7]; evidenced by increased PpIX concentrations in normal brain tissue after ALA administration (Hebeda, K., 1995)): can cross the blood-brain barrier | time point of maximal uptake of ALA into brain tissue ([7]; following the ALA injection (Lilge, L., et al. 2000)): four | ALA uptake in hippocampal cells (PpIX fluorescence) (hippocampal cells; fully kindled rats with elicited seizures vs fully kindled rats without elicited seizures and implanted controls, preliminary data): greater ALA uptake in hippocampal cells | PpIX fluorescence (hippocampal cells; kindled rats without elicited seizures vs implanted controls, initial results): more fluorescence than implanted controls
